Test: Subcutaneous trial in males: vomiting
Assay type: in vivo, human
Settings: intramuscular ondansetron
Description: In a trial in males, 1 of 6 subjects at the 5-mg dose level, 1 of 6 subjects at the 7.5 mg dose level, and 3 of 6 subjects at the 10-mg dose level experienced vomiting that was mild or moderate in intensity and delayed 6 to 15 hours.

Structure (SMILES): Cc1nccn1CC1CCc2c(c3ccccc3n2C)C1=O (stereo not shown) [ondansetron, reference compound]
- Resolution of bremelanotide-associated vomiting: Vomiting could be resolved

Reference: patent publication US9352013B2, “Uses of bremelanotide in therapy for female sexual dysfunction” (Palatin Technologies, Inc., priority 2012, dated 2016)
